Values after ≈ are worked out from the molar mass of the structure shown. Like-named read-outs stand apart in the source and are kept apart here.
Experiments:
V. cholerae CO6 = assay: Broth microdilution MIC/MBC; assay type: cell-based, Vibrio cholerae; conditions: for MBC/MIC / MBC / MIC: V. cholerae CO6; for MBC / MIC: Vibrio cholerae; for MBC: 99.9% reduction in CFU after 24 h; for MIC: 24 h at 37 °C; for Selectivity Index V. cholerae CO6: SI = LC50 on Vero cells / MIC
Protocol: (§1) A total of six bacterial strains were tested for their susceptibility to compounds and these strains were taken from our laboratory collection (kindly provided by Dr. T. Ramamurthy, NICED, Kolkata). Among the clinical strains of Vibrio cholerae used in this study, strains NB2 and SG24 and CO6 belonged to O1 and O139 serotypes, respectively. […]. The other strains used in this study were V. cholerae non-O1, non-O139 (strain PC2); […]. The American Type Culture Collection (ATCC) strain, Staphylococcus aureus ATCC 25923, was used for quality control. The bacterial strains were maintained on agar slant at 4 °C and subcultured on a fresh appropriate agar plates 24 h prior to any antibacterial test. The Mueller Hinton Agar (MHA) was used for the activation of bacteria. The Mueller Hinton Broth (MHB) and nutrient agar (Hi-Media) were used for the MIC and MBC determinations respectively.
(§2) Suspensions of bacteria were prepared in MHB from cells arrested during their logarithmic phase growth (4 h) on MHB at 37 °C. The turbidity of the microbial suspension was read spectrophotometrically at 600 nm and adjusted to an OD of 0.1 with MHB, which is equivalent to 1 × 10^8 CFU/mL. From this prepared solution, other dilutions were made with MHB to yield 1x10^6 CFU/mL.
(§3) MIC and MBC of compounds 1–3 were assessed using the broth microdilution method recommended by the National Committee for Clinical Laboratory Standards with slight modifications. Each test sample was dissolved in dimethylsulfoxide (DMSO) to give a stock solution. The 96-well round bottom sterile plates were prepared by dispensing 180 μL of the inoculated broth (1x10^6 CFU/mL) into each well. A 20 μL aliquot of the stock solution of compound was added. The concentrations of sample tested were 0.125, 0.25, 0.50, 1, 2, 4, 8, 16, 32, 64, 128, 256 and 512 μg/mL. […] Dilutions of tetracycline and ampicillin served as positive controls, while broth with 20 μL of DMSO was used as negative control. The ATCC strain Staphylococcus aureus ATCC 25923 was included for quality assurance purposes. Plates were covered and incubated for 24 h at 37 °C. After incubation, minimum inhibitory concentrations (MIC) were read visually; all wells were plated to nutrient agar (Hi-Media) and incubated. The minimal bactericidal concentration (MBC) was defined as a 99.9% reduction in CFU from the starting inoculums after 24 h incubation interval.

V. cholerae NB2 = assay: Broth microdilution MIC/MBC; assay type: cell-based, Vibrio cholerae; conditions: for MBC/MIC / MBC / MIC: V. cholerae NB2; for MBC / MIC: Vibrio cholerae; for MBC: 99.9% reduction in CFU after 24 h; for MIC: 24 h at 37 °C, read-out: MIC; for Selectivity Index V. cholerae NB2: SI = LC50 on Vero cells / MIC
Protocol: as §1, §2, §3

V. cholerae PC2 = assay: Broth microdilution MIC/MBC; assay type: cell-based, Vibrio cholerae; conditions: for MBC/MIC / MBC / MIC: V. cholerae PC2; for MBC / MIC: Vibrio cholerae; for MBC: 99.9% reduction in CFU after 24 h; for MIC: 24 h at 37 °C, read-out: MIC
Protocol: as §1, §2, §3

V. cholerae SG24 = assay: Broth microdilution MIC/MBC; assay type: cell-based, Vibrio cholerae; conditions: for MBC / MIC: Vibrio cholerae; for MBC: 99.9% reduction in CFU after 24 h; for MIC: 24 h at 37 °C
Protocol: as §1, §2, §3

S. flexneri SDINT = assay: Broth microdilution MIC/MBC; assay type: cell-based, Shigella flexneri; conditions: for MBC/MIC / MBC / MIC: S. flexneri SDINT; for MBC / MIC: Shigella flexneri; for MBC: 99.9% reduction in CFU after 24 h; for MIC: 24 h at 37 °C, read-out: MIC; for Selectivity Index S. flexneri SDINT: SI = LC50 on Vero cells / MIC
Protocol: as §1, §2, §3

S. aureus ATCC 25923 = assay: Broth microdilution MIC/MBC; assay type: cell-based, Staphylococcus aureus; conditions: for MBC/MIC / MBC / MIC: S. aureus ATCC 25923; for MBC / MIC: Staphylococcus aureus, ATCC25923; for MBC: 99.9% reduction in CFU after 24 h; for MIC: 24 h at 37 °C; for Selectivity Index S. aureus ATCC 25923: SI = LC50 on Vero cells / MIC
Protocol: as §1, §2, §3

Hemolytic assay = assay type: cell-based; conditions: male, 1% human red blood cell suspension, 512 μg/mL (highest concentration tested), 1% human red blood cells, PBS pH 7.4, 37 °C
Protocol: Whole blood (10 mL) from a healthy person was collected into a conical tube containing heparin as an anticoagulant. Erythrocytes were harvested by centrifugation at room temperature for 10 min at 1,000 × g and were washed three times in PBS solution. The top layer (plasma) and the next, milky layer (buffy coat with a layer of platelets on top of it) were then carefully aspirated and discarded. The cell pellet was resuspended in 10 mL of PBS solution and mixed by gentle aspiration with a Pasteur pipette. This cell suspension was used immediately.
For the normal human red blood cells, which were in suspension, the cytotoxicity was evaluated as previously described. Compounds 1–3, at concentrations ranging from 32 to 512 μg/mL, were incubated with an equal volume of 1% human red blood cells in phosphate buffered saline (10 mM PBS, pH 7.4) at 37 °C for 1 h. Tetracycline was tested simultaneously. Non-hemolytic and 100% hemolytic controls were the buffer alone and the buffer containing 1% Triton X-100, respectively. Cell lysis was monitored by measuring the release of hemoglobin at 595 nm with a spectrophotometer (Thermo Scientific, USA). Percent hemolysis was calculated as follows: [(A595 of sample treated with compound - A595 of sample treated with buffer)/(A595 of sample treated with Triton X-100 – A595 of sample treated with buffer)] x 100.

MTT cytotoxicity assay [1] = assay type: cell-based, Human; conditions: human, HeLa cells; MTT, 24 h, mean ± SD; read-out: Cytotoxicty (LC50) HeLa cells
Protocol: (§4) HeLa (Human cervical cancer cell line, ATCC No. CCL-2) and Vero cells (African green monkey kidney cells, normal non-cancer cells, ATCC No. CCL-81), obtained from the American Type Culture Collection (ATCC) were used in this study. Cytotoxic activity was determined using the 3-(4,5-dimethylthiazol-2-yl)-2,5-diphenyltetrazolium bromide (MTT, Sigma, USA) assay reported by Mosmann for the HeLa and Vero cells. This cell viability assay is based on living cell‘s property to transform the MTT dye tetrazolium ring into a purple-colored formazan structure due to the action of mitochondrial and other dehydrogenases inside the cell. The color intensity yielded by the cell population is directly proportional to the number of viable cells, and one can quantify the absorbance measurements using mathematical parameters. Each test sample was dissolved in dimethylsulfoxide (DMSO) to give a stock solution. Compounds 1–3 were prepared from the stock solutions by serial dilution in RPMI 1640 to give a volume of 100 μL in each well of a microtiter plate (96-well). Each well was filled with 100 μL of cells at 2 × 10^5 cells/mL. The assay for each concentration of compound was performed in triplicates and the culture plates were kept at 37 °C with 5% (v/v) CO2 for 24 h. After removing the supernatant of each well and washing twice by PBS, 20 μL of MTT solution (5 mg/mL in PBS) and 100 μL of medium were then introduced. After 4 h of incubation, 100 μL of DMSO were added to each well to dissolve the formazan crystals and the absorbance values at 490 nm were measured with a microplate reader (Bio-RAD 680, USA). The relative cell viability (%) was expressed as a relative percentage of treated cells to the untreated control cells (TC/UC × 100). The rate of cell inhibition was calculated using the following formula: inhibition rate = [1- (ODtest/ODnegative control)] × 100%. The LC50 values were calculated as the concentration of test sample resulting in a 50% reduction of absorbance compared to untreated cells. Cells treated with 5-fluorouridine + RPMI 1640 served as positive control while cells left untreated + 1% (v/v) DMSO + RPMI 1640 were used as negative control.

HeLa cells = assay: MTT cytotoxicity assay; assay type: cell-based, Human; conditions: SI = LC50 on Vero cells / LC50 on HeLa cells
Protocol: as §4

MTT cytotoxicity assay [2] = assay type: cell-based; conditions: African green monkey, Vero cells, normal non-cancer cells, mean ± SD, read-out: Cytotoxicty (LC50) Vero cells
Protocol: as §4

[3] = tested on: studied microorganisms (six bacterial strains); assay: Antibacterial spectrum over the six tested strains (broth microdilution); assay type: cell-based; conditions: out of 6 strains; concentrations up to 512 μg/mL
Protocol: as §1, §3

| SMILES | MBC/MIC (V. cholerae CO6) | MBC (V. cholerae CO6) | MIC (V. cholerae CO6) | MBC/MIC (V. cholerae NB2) | MBC (V. cholerae NB2) | MIC (V. cholerae NB2) | MBC/MIC (V. cholerae PC2) | MBC (V. cholerae PC2) | MIC (V. cholerae PC2) | MBC (V. cholerae SG24) | MIC (V. cholerae SG24) | MBC/MIC (S. flexneri SDINT) | MBC (S. flexneri SDINT) | MIC (S. flexneri SDINT) | MBC/MIC (S. aureus ATCC 25923) | MBC (S. aureus ATCC 25923) | MIC (S. aureus ATCC 25923) | hemolysis at 1 h, 512 μg/mL (Hemolytic assay) | Selectivity Index V. cholerae CO6 (V. cholerae CO6) | Selectivity Index V. cholerae NB2 (V. cholerae NB2) | other results |
| --- | --- | --- | --- | --- | --- | --- | --- | --- | --- | --- | --- | --- | --- | --- | --- | --- | --- | --- | --- | --- | --- |
| CN(C)[C@@H]1C(O)=C(C(N)=O)C(=O)[C@@]2(O)C(O)=C3C(=O)c4c(O)cccc4[C@@](C)(O)[C@H]3C[C@@H]12 [Tetracycline, reference compound] | 4 | 8 µg/mL (≈ 18 µM) | 2 µg/mL (≈ 4.5 µM) | 4 | 2 µg/mL (≈ 4.5 µM) | 0.5 µg/mL (≈ 1.13 µM) | 2 | 1 µg/mL (≈ 2.25 µM) | 0.5 µg/mL (≈ 1.13 µM) | 1 µg/mL (≈ 2.25 µM) | 0.5 µg/mL (≈ 1.13 µM) | 2 | 32 µg/mL (≈ 72 µM) | 16 µg/mL (≈ 36 µM) | 2 | 32 µg/mL (≈ 72 µM) | 16 µg/mL (≈ 36 µM) | < 10% |  |  | MBC/MIC (V. cholerae SG24): 2 |
| C=C1[C@@H](C)C2[C@H](Cc3ccccc3)NC(=O)[C@@]23C(/C=C/C[C@H](C)C[C@@](C)(O)/C=C/[C@H]3O)[C@@H]1O (some centres unmarked) [Compound 3, cytochalasin J] | 1 | 512 µg/mL (≈ 1130 µM) | 512 µg/mL (≈ 1130 µM) | 1 | 512 µg/mL (≈ 1130 µM) | 512 µg/mL (≈ 1130 µM) |  | > 512 µg/mL | > 512 µg/mL | > 512 µg/mL | > 512 µg/mL | 1 | 128 µg/mL (≈ 283 µM) | 128 µg/mL (≈ 283 µM) | 1 | 512 µg/mL (≈ 1130 µM) | 512 µg/mL (≈ 1130 µM) | < 10% | 0.14 | 0.14 | Selectivity Index S. flexneri SDINT (S. flexneri SDINT): 0.57; Selectivity Index S. aureus ATCC 25923 (S. aureus ATCC 25923): 0.14; CC50 at 24 h (MTT cytotoxicity assay [1]): 3.66 ± 0.33 µg/mL (≈ 8.1 µM); Selectivity Index HeLa cells (HeLa cells): 20.18; CC50 at 24 h (MTT cytotoxicity assay [2]): 73.9 ± 0.92 µg/mL (≈ 164 µM); share of the studied microorganisms on which inhibitory effects were noted [3]: 66.66% |
| C=C1[C@@H](C)C2[C@H](Cc3ccccc3)NC(=O)[C@@]23C(/C=C/C[C@H](C)C[C@@](C)(O)/C=C/[C@H]3OC(C)=O)[C@@H]1O (some centres unmarked) [Compound 2, cytochalasin H] | 1 | 512 µg/mL (≈ 1040 µM) | 512 µg/mL (≈ 1040 µM) | 1 | 512 µg/mL (≈ 1040 µM) | 512 µg/mL (≈ 1040 µM) | 1 | 256 µg/mL (≈ 519 µM) | 256 µg/mL (≈ 519 µM) | > 512 µg/mL | > 512 µg/mL | 1 | 128 µg/mL (≈ 259 µM) | 128 µg/mL (≈ 259 µM) | 1 | 256 µg/mL (≈ 519 µM) | 256 µg/mL (≈ 519 µM) | 20.1% | 0.25 | 0.25 | Selectivity Index V. cholerae PC2 (V. cholerae PC2; SI = LC50 on Vero cells / MIC): 0.50; Selectivity Index S. flexneri SDINT (S. flexneri SDINT): 1.00; Selectivity Index S. aureus ATCC 25923 (S. aureus ATCC 25923): 0.50; CC50 at 24 h (MTT cytotoxicity assay [1]): 35.7 ± 1.31 µg/mL (≈ 72.3 µM); Selectivity Index HeLa cells (HeLa cells): 3.61; CC50 at 24 h (MTT cytotoxicity assay [2]): 129.1 ± 1.2 µg/mL (≈ 262 µM); share of the studied microorganisms on which inhibitory effects were noted [3]: 83.33% |

Reference: paper PMC5109658, “Antibacterial and cytotoxic cytochalasins from the endophytic fungus Phomopsis sp. harbored in Garcinia kola (Heckel) nut” (BMC Complementary and Alternative Medicine, 2016)
